Experiments:
[1] = test system: human gamma globulin; experiment: binding of active substance to human gamma globulin (ultrafiltration, HPLC); conditions: Example II.4; 2.25% human gamma globulin + 0.1 mg/ml paclitaxel in absolute ethanol 9:1; lyophilised, redissolved; UF
[2] = test system: histamine release; experiment: hypersensitivity test: plasma histamine level in rats; type: in vivo, CRL (WI) BR male rats; conditions: around 7.0 mg/kG for paclitaxel i.v., blood after 2, 5 and 10 minutes

- binding of paclitaxel to human gamma globulin [1]: 98%
- histamine release induction (plasma histamine level) [2]: do not show any such effect
SMILES: CC(=O)O[C@H]1C(=O)[C@@]2(C)[C@H]([C@H](OC(=O)c3ccccc3)[C@]3(O)C[C@H](OC(=O)[C@H](O)[C@@H](NC(=O)c4ccccc4)c4ccccc4)C(C)=C1C3(C)C)[C@]1(OC(C)=O)CO[C@@H]1C[C@@H]2O [paclitaxel]
